Measurements reported in the kinase profiling compilation of Christmann-Franck et al. (2016).

Assays:
Test in all cases: KINOMEscan competition binding
Conditions in all cases: compound 10.0 µM
MTOR (human) = MTOR (human) (UniProt P42345)
MYLK3 (human) = MYLK3 (human) (UniProt Q32MK0)
[1] = system: PIK3CA (human), P42336 [H1047Y]
CDK4 CCND1 (human) = CDK4 CCND1 (human) (UniProt P11802+P24385)
MET (human) = MET (human) (UniProt P08581)
SBK1 (human) = SBK1 (human) (UniProt Q52WX2)
TAOK2 (human) = TAOK2 (human) (UniProt Q9UL54)
RPS6KB1 (human) = RPS6KB1 (human) (UniProt P23443)
NIM1 (human) = NIM1 (human) (UniProt Q8IY84)
BRAF (human) = BRAF (human) (UniProt P15056)
MAST1 (human) = MAST1 (human) (UniProt Q9Y2H9)
[2] = system: ABL1 (human), P00519 [E255K]
HUNK (human) = HUNK (human) (UniProt P57058)
SGK3 (human) = SGK3 (human) (UniProt Q96BR1)
MAP2K5 (human) = MAP2K5 (human) (UniProt Q13163)
PI4KB (human) = PI4KB (human) (UniProt Q9UBF8)
VRK2 (human) = VRK2 (human) (UniProt Q86Y07)
ROCK1 (human) = ROCK1 (human) (UniProt Q13464)
[3] = system: PIK3CA (human), P42336 [C420R]
PRKCI (human) = PRKCI (human) (UniProt P41743)
CASK (human) = CASK (human) (UniProt O14936)
DYRK1A (human) = DYRK1A (human) (UniProt Q13627)
ERBB3 (human) = ERBB3 (human) (UniProt P21860)
IRAK4 (human) = IRAK4 (human) (UniProt Q9NWZ3)
CDKL5 (human) = CDKL5 (human) (UniProt O76039)
GRK4 (human) = GRK4 (human) (UniProt P32298)
CDKL1 (human) = CDKL1 (human) (UniProt Q00532)
ICK (human) = ICK (human) (UniProt Q9UPZ9)
HIPK2 (human) = HIPK2 (human) (UniProt Q9H2X6)
CPK1 (P.falciparum) = system: CPK1 (P.falciparum)
MAP3K13 (human) = MAP3K13 (human) (UniProt O43283)
PIK3CG (human) = PIK3CG (human) (UniProt P48736)
[4] = system: PIK3CA (human), P42336 [E545A]
IRAK1 (human) = IRAK1 (human) (UniProt P51617)
NEK3 (human) = NEK3 (human) (UniProt P51956)
EPHB6 (human) = EPHB6 (human) (UniProt O15197)
KIT (human) = KIT (human) (UniProt P10721)
CDK2 (human) = CDK2 (human) (UniProt P24941)
HIPK4 (human) = HIPK4 (human) (UniProt Q8NE63)
[5] = system: PIK3CA (human), P42336 [E545K]
Chain of PIK3CA (human), P42336 [E545K] (P42336 whole entry E545K, looked up): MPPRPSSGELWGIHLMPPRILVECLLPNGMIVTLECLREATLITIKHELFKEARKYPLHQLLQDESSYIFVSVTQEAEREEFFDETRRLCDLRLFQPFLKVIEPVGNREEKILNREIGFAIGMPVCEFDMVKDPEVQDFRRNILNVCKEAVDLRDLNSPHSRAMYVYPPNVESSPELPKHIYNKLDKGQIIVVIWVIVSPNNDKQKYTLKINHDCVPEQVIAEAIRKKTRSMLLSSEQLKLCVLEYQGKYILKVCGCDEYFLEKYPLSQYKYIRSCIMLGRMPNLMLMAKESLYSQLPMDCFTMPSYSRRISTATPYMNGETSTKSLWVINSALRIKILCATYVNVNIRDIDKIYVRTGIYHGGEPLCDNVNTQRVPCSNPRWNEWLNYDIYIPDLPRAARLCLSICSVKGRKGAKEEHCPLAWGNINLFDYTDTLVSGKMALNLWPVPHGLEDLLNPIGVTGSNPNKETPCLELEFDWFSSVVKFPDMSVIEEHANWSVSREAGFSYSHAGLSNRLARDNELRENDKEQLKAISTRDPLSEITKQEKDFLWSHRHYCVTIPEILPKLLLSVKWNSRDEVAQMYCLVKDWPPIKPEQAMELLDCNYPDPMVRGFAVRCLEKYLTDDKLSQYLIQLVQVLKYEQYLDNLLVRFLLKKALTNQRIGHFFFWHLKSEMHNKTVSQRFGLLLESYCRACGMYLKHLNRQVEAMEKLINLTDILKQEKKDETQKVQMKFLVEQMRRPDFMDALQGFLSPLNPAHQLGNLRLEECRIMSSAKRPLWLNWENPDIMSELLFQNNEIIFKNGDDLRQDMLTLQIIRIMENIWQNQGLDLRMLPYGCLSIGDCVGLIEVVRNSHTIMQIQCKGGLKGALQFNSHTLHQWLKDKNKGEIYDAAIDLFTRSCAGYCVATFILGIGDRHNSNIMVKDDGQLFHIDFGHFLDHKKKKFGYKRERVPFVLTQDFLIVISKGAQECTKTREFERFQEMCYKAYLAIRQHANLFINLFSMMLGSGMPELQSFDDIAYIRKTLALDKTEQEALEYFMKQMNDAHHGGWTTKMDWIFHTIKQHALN

Chain of CDKL1 (human) (Q00532 whole entry, looked up): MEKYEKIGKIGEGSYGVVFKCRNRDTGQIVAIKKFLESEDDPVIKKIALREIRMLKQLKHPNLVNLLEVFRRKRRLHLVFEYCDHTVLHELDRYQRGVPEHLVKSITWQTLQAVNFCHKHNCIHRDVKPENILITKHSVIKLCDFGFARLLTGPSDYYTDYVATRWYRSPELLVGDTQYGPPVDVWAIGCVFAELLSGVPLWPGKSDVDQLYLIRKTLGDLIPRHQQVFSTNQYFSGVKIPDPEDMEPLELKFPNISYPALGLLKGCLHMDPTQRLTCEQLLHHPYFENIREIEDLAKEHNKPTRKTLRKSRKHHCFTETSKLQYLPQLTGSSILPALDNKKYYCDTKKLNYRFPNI
Chain of IRAK1 (human) (P51617 whole entry, looked up): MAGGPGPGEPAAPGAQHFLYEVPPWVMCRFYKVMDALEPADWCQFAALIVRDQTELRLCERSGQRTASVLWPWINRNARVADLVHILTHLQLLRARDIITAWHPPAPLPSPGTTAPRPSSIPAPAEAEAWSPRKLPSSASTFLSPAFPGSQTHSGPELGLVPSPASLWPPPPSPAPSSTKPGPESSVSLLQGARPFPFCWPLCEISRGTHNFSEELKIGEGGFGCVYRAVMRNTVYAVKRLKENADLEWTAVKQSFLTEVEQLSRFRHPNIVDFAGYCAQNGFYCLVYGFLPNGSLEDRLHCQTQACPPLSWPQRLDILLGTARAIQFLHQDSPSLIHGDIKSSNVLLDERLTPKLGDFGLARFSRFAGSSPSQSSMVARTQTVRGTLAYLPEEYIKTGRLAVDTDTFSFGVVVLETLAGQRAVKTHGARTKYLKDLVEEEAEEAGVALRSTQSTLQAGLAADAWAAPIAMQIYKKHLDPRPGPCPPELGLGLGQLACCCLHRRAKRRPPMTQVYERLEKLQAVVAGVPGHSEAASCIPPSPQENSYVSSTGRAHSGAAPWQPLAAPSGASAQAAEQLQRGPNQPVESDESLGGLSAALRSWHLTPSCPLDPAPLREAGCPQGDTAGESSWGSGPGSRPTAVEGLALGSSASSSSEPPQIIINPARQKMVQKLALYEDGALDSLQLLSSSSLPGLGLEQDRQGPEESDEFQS
Chain of HUNK (human) (P57058 whole entry, looked up): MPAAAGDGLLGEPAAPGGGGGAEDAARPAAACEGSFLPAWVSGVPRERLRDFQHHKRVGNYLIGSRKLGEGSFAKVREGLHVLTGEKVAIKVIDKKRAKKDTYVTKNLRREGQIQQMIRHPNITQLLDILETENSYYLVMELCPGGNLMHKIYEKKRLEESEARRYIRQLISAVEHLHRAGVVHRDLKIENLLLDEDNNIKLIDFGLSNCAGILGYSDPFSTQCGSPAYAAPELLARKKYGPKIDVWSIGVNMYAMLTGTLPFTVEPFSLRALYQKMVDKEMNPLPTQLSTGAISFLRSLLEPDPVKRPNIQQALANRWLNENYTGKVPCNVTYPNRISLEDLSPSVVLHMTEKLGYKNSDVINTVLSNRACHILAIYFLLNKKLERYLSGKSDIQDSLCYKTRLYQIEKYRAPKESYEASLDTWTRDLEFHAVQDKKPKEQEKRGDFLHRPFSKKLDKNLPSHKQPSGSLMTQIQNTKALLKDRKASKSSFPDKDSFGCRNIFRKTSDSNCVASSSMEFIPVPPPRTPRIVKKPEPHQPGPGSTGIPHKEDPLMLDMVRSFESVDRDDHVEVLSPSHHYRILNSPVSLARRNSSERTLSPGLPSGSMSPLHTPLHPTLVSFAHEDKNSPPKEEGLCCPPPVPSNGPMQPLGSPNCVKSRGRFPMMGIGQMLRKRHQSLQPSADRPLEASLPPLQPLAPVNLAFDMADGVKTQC
Chain of PIK3CA (human), P42336 [H1047Y] (P42336 whole entry H1047Y, looked up): as the sequence (P42336 whole entry E545K, looked up) above, with K545E, H1047Y counted along it
Chain of KIT (human) (P10721 whole entry, looked up): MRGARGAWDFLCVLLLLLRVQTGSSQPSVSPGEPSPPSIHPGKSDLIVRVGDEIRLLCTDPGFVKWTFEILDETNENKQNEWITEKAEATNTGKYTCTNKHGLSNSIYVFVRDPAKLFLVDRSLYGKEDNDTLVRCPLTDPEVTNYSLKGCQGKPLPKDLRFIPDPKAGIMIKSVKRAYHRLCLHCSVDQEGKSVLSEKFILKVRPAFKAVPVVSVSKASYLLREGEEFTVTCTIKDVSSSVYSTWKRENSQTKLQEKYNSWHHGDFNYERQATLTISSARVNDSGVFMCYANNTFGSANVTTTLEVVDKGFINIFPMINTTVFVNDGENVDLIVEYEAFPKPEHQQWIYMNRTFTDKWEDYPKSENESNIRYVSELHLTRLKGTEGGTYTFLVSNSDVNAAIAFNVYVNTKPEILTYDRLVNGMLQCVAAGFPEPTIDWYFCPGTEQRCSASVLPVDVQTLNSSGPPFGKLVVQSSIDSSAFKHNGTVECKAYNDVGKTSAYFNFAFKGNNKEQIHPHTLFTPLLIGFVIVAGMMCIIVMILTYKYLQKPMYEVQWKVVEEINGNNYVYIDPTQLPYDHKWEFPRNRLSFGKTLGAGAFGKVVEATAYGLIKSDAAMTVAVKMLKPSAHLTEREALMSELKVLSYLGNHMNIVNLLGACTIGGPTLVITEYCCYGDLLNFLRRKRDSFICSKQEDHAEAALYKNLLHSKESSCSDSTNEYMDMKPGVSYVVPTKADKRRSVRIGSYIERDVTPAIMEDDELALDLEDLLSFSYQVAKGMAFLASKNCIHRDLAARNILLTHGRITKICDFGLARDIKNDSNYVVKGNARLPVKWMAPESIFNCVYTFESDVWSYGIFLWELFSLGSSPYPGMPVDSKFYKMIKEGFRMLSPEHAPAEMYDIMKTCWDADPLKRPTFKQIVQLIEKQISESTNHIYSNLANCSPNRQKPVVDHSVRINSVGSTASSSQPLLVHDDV
Chain of CASK (human) (O14936 whole entry, looked up): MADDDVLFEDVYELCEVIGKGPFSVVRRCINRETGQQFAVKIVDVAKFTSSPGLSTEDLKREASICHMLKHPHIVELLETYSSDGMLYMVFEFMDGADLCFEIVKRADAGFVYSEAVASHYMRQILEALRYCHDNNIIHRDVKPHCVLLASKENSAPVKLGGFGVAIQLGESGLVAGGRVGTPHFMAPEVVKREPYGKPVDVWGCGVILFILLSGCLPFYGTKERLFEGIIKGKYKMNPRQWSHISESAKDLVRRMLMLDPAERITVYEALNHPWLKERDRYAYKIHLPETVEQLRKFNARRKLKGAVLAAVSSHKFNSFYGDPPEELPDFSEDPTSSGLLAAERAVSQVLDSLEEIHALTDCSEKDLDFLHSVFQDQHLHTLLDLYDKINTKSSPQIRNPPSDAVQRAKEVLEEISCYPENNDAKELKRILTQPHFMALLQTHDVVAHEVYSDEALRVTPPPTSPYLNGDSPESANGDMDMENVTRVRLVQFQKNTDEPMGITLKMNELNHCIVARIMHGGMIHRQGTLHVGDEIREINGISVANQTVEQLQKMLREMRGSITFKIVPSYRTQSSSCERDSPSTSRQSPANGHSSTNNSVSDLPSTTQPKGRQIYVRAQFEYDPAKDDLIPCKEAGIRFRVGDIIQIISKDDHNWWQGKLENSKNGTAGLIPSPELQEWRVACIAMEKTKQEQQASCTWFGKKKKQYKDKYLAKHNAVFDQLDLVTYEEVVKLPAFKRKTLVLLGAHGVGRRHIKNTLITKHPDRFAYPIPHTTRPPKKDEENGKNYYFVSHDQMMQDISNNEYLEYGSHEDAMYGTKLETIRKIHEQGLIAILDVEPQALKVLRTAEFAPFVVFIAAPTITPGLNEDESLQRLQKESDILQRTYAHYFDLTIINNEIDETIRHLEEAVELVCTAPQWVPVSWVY
Chain of PIK3CA (human), P42336 [C420R] (P42336 whole entry C420R, looked up): as the sequence (P42336 whole entry E545K, looked up) above, with C420R, K545E counted along it
Chain of PIK3CA (human), P42336 [E545A] (P42336 whole entry E545A, looked up): as the sequence (P42336 whole entry E545K, looked up) above, with K545A counted along it

Structure (SMILES): O=C1Nc2ccc(I)cc2/C1=C/c1cc(Br)c(O)c(Br)c1
- kinase still bound, per cent of control (MTOR (human)): 95%
- kinase still bound, per cent of control (MYLK3 (human)): 10%
- kinase still bound, per cent of control [1]: 76%
- kinase still bound, per cent of control (CDK4 CCND1 (human)): 65%
- kinase still bound, per cent of control (MET (human)): 100%
- kinase still bound, per cent of control (SBK1 (human)): 85%
- kinase still bound, per cent of control (TAOK2 (human)): 71%
- kinase still bound, per cent of control (RPS6KB1 (human)): 81%
- kinase still bound, per cent of control (NIM1 (human)): 100%
- kinase still bound, per cent of control (BRAF (human)): 0.9%
- kinase still bound, per cent of control (MAST1 (human)): 100%
- kinase still bound, per cent of control [2]: 54%
- kinase still bound, per cent of control (HUNK (human)): 2.8%
- kinase still bound, per cent of control (SGK3 (human)): 73%
- kinase still bound, per cent of control (MAP2K5 (human)): 56%
- kinase still bound, per cent of control (PI4KB (human)): 0.5%
- kinase still bound, per cent of control (VRK2 (human)): 82%
- kinase still bound, per cent of control (ROCK1 (human)): 80%
- kinase still bound, per cent of control [3]: 100%
- kinase still bound, per cent of control (PRKCI (human)): 100%
- kinase still bound, per cent of control (CASK (human)): 74%
- kinase still bound, per cent of control (DYRK1A (human)): 26%
- kinase still bound, per cent of control (ERBB3 (human)): 87%
- kinase still bound, per cent of control (IRAK4 (human)): 90%
- kinase still bound, per cent of control (CDKL5 (human)): 92%
- kinase still bound, per cent of control (GRK4 (human)): 21%
- kinase still bound, per cent of control (CDKL1 (human)): 84%
- kinase still bound, per cent of control (ICK (human)): 88%
- kinase still bound, per cent of control (HIPK2 (human)): 7.6%
- kinase still bound, per cent of control (CPK1 (P.falciparum)): 24%
- kinase still bound, per cent of control (MAP3K13 (human)): 100%
- kinase still bound, per cent of control (PIK3CG (human)): 71%
- kinase still bound, per cent of control [4]: 86%
- kinase still bound, per cent of control (IRAK1 (human)): 100%
- kinase still bound, per cent of control (NEK3 (human)): 95%
- kinase still bound, per cent of control (EPHB6 (human)): 24%
- kinase still bound, per cent of control (KIT (human)): 3.4%
- kinase still bound, per cent of control (CDK2 (human)): 97%
- kinase still bound, per cent of control (HIPK4 (human)): 21%
- kinase still bound, per cent of control [5]: 100%
